# Biological target: not listed separately
# Experiment: In vitro thromboxane receptor antagonist against U-46619 induced aggregation of washed human platelets
row,Structure (SMILES),IC50
1,O=C(O)CCCCO/N=C(/c1cccnc1)c1cccc(C(F)(F)F)c1 [5-[Pyridin-3-yl-(3-trifluoromethyl-phenyl)-methyleneaminooxy]-pentanoic acid],1280 nM
2,"O=C(O)CC/C=C\CC[C@H]1[C@@H](OCc2ccc(-c3ccccc3)cc2)CO[C@@H]1c1cccnc1 [(Z)-7-[(2S,3R,4R)-4-(Biphenyl-4-ylmethoxy)-2-pyridin-3-yl-tetrahydro-furan-3-yl]-hept-4-enoic acid]",27 nM
3,"O=C(O)CC/C=C\CC[C@@H]1[C@@H](c2cccnc2)OC[C@H]1OCc1ccc(-c2ccccc2)cc1 [(Z)-7-[(2S,3R,4S)-4-(Biphenyl-4-ylmethoxy)-2-pyridin-3-yl-tetrahydro-furan-3-yl]-hept-4-enoic acid]",88 nM

# Second part, the molecule after the results:
row,IC50,Structure (SMILES)
1,795 nM,"O=C(O)CC/C=C\CC[C@H]1[C@@H](OCc2ccc(-c3ccccc3)cc2)CO[C@H]1c1cccnc1 [(Z)-7-[(2R,3R,4R)-4-(Biphenyl-4-ylmethoxy)-2-pyridin-3-yl-tetrahydro-furan-3-yl]-hept-4-enoic acid]"
2,820 nM,"O=C(O)CC/C=C\CC[C@H]1[C@H](OCc2ccc(-c3ccccc3)cc2)CO[C@H]1c1cccnc1 [(Z)-7-[(2R,3R,4S)-4-(Biphenyl-4-ylmethoxy)-2-pyridin-3-yl-tetrahydro-furan-3-yl]-hept-4-enoic acid]"

# Biological target: T1, Thromboxane A2 receptor (Homo sapiens, UniProt P21731)
# T1 sequence (P21731 whole entry): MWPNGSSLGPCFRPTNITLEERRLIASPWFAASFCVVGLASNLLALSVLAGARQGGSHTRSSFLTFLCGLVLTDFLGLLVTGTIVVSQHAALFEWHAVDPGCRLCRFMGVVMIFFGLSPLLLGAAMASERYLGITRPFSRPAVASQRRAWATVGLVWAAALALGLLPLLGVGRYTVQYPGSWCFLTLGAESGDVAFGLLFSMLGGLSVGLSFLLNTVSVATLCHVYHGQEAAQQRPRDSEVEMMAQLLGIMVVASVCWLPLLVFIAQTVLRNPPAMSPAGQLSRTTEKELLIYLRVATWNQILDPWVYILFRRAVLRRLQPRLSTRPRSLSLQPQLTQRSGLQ
# Experiment: In vitro thromboxane receptor antagonist against U-46619 induced aggregation of washed human platelets
row,IC50,Structure (SMILES)
1,28 nM,"O=C(O)CC/C=C\CC[C@H]1[C@@H](OCc2ccc(-c3ccccc3)cc2)CO[C@@H]1c1cccnc1 [(Z)-7-[(2S,3R,4R)-4-(Biphenyl-4-ylmethoxy)-2-pyridin-3-yl-tetrahydro-furan-3-yl]-hept-4-enoic acid]"

# Reference: BindingDB's records for doi:10.1016/S0960-894X(01)80104-9 (1994)
